Measurements: patent publication US20110312945A1, “CRTH2 MODULATORS” (priority 2008, published 2011)
pIC50: −log10 of the molar value.

Target: T1, CRTH2 (Homo sapiens, UniProt Q9Y5Y4)
T1 construct: polymorphonuclear cells (0.5 ml; 10^6/ml cells) in PBS containing 0.9 mM CaCl2 and 0.5 mM MgCl2; endogenous in cells; host or cells: polymorphonuclear cells (eosinophils gated by flow cytometry)
T1 sequence (Q9Y5Y4 1-395): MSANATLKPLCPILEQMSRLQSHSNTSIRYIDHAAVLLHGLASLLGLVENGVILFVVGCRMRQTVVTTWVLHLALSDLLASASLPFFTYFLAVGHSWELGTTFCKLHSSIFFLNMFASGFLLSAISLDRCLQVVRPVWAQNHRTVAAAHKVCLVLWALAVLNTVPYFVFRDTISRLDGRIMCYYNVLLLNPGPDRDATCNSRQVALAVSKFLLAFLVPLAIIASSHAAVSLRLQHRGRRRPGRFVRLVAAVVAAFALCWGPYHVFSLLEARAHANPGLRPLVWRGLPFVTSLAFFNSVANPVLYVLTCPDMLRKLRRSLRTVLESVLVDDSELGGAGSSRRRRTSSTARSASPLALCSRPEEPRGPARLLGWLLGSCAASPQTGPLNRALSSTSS
Experiment: DPBS CD11b Antagonist Assay
Assay type: cell-based
Conditions: polymorphonuclear cells in PBS, eosinophil CD11b expression, challenge with 15R-Methyl-PGD2 (10 nM)
Method: DPBS CD11b Antagonist Assay. The potential CRTH2 antagonist activity of certain compounds was tested using a CD11b expression assay using essentially the method described by Monneret et al. (J Pharmacol Exp Ther 304:349-55, 2003). Briefly, polymorphonuclear cells (0.5 ml; 10^6/ml cells) in PBS containing 0.9 mM CaCl2 and 0.5 mM MgCl2) were preincubated with various concentrations of test compounds at room temperature for 10 minutes before they were challenged with the agonist 15R-Methyl-PGD2 (10 nM). The incubations were terminated by the addition of ice-cold FACSFlow (BD Biosciences; Cat# 342003) and centrifugation (400 g for 5 minutes at 4° C.). The cells were then incubated for 30 minutes at 4° C. with a mixture of PE-labeled mouse anti-human VLA-4 (5 μl; BD Biosciences) and FITC-labeled mouse anti-human CD11b (10 μl; Beckman Coulter). The cells were then incubated with Optilyse C (0.25 ml; Beckman Coulter) for 15 minutes, centrifuged, and then fixed in PBS (0.4 ml; calcium and magnesium free) containing 1% formaldehyde. The distribution of fluorescence intensities among 60,000 cells was measured by flow cytometry. Eosinophils were gated out on the basis of their granularity (high side scatter) and labeling with VLA-4 (PE fluorescence). CD11b was then measured in the eosinophil region on the basis of fluorescence due to FITC. All data were corrected for the value obtained for the corresponding isotope control antibody.

Row | Structure (SMILES) | pIC50
1 | Cc1c(S(=O)(=O)N(C)c2ccccc2)c2c(n1CC(=O)O)CC(C)(C)CC2=O [Example I-75, 2-(2,6,6-trimethyl-3-(N-methyl-N-phenylsulfamoyl)-4-oxo-4,5,6,7-tetrahydro-1H-indol-1-yl)acetic acid] | < 6.30
2 | Cc1c(Cc2ccccc2S(=O)(=O)N2CCCC2)c2c(n1CC(=O)OCCN1CCOCC1)CC(C)(C)CC2=O [Example I-62, 2-morpholinoethyl 2-(2,6,6-trimethyl-4-oxo-3-(2-(pyrrolidin-1-ylsulfonyl)benzyl)-4,5,6,7-tetrahydro-1H-indol-1-yl)acetate] | > 8.30
3 | Cc1c(Cc2ccc(S(=O)(=O)N3CCCCCC3)cc2)c2c(n1CC(=O)O)CCC(C)(C)C2 [Example I-16, 2-(3-(4-(Azepan-1-ylsulfonyl)benzyl)-2,5,5-trimethyl-4,5,6,7-tetrahydro-1H-indol-1-yl)acetic acid] | 7.00 to 8.30
4 | CCOC(=O)Cn1c(C)c(Cc2ccccc2S(=O)(=O)N(C)c2ccccc2)c2c1CC(C)(C)CC2=O [Example I-66, ethyl 2-(2,6,6-trimethyl-3-(2-(N-methyl-N-phenylsulfamoyl)benzyl)-4-oxo-4,5,6,7-tetrahydro-1H-indol-1-yl)acetate] | 7.00 to 8.30
5 | Cc1c(Cc2ccccc2S(=O)(=O)N2CCCC2)c2c(n1CC(N)=O)CC(C)(C)CC2=O [Example I-84, 2-(2,6,6-trimethyl-4-oxo-3-(2-(pyrrolidin-1-ylsulfonyl)benzyl)-4,5,6,7-tetrahydro-1H-indol-1-yl)acetamide] | < 6.30
6 | COC(=O)Cn1c(C)c(Cc2ccccc2S(=O)(=O)N2CCOCC2)c2c1CC(C)(C)CC2=O [Example I-59, methyl 2-(2,6,6-trimethyl-3-(2-(morpholinosulfonyl)benzyl)-4-oxo-4,5,6,7-tetrahydro-1H-indol-1-yl)acetate] | 7.00 to 8.30
7 | Cc1c(Sc2ccc(S(=O)(=O)N3CCOCC3)cc2)c2c(n1CC(=O)O)CCC(C)(C)C2 [Example I-37, 2-(2,5,5-trimethyl-3-(4-(morpholinosulfonyl)phenylthio)-4,5,6,7-tetrahydro-1H-indol-1-yl)acetic acid] | > 8.30
8 | Cc1c(Cc2ccc(S(=O)(=O)N(C)C)cc2)c2c(n1CC(=O)O)CCC(C)(C)C2 [Example I-18, 2-(3-(4-(N,N-Dimethylsulfamoyl)benzyl)-2,5,5-trimethyl-4,5,6,7-tetrahydro-1H-indol-1-yl)acetic acid] | > 8.30
9 | CCOC(=O)Cn1c(C)c(Sc2ccc(F)cc2S(=O)(=O)N2CCCC2)c2c1CC(C)(C)CC2=O [Example I-57, Ethyl 2-(3-(4-fluoro-2-(pyrrolidin-1-ylsulfonyl)phenylthio)-2,6,6-trimethyl-4-oxo-4,5,6,7-tetrahydro-1H-indol-1-yl)acetate] | 7.00 to 8.30
10 | CCOC(=O)Cn1c(C)c(Cc2ccccc2S(=O)(=O)N2CCOCC2)c2c1CCC(C)(C)C2 [Example I-25, Ethyl 2-(2,5,5-trimethyl-3-(2-(morpholinosulfonyl)benzyl)-4,5,6,7-tetrahydro-1H-indol-1-yl)acetate] | 6.30 to 7.00
11 | COC(=O)Cn1c(C)c(Cc2ccccc2S(=O)(=O)N2CCCC2)c2c1CC(C)(C)CC2=O [Example I-58, Methyl 2-(2,6,6-trimethyl-4-oxo-3-(2-(pyrrolidin-1-ylsulfonyl)benzyl)-4,5,6,7-tetrahydro-1H-indol-1-yl)acetate] | 7.00 to 8.30
12 | Cc1c(Cc2ccccc2S(=O)(=O)C2CCCCC2)c2c(n1CC(=O)O)CC(C)(C)CC2=O [Example I-82, 2-(3-(2-(cyclohexylsulfonyl)benzyl)-2,6,6-trimethyl-4-oxo-4,5,6,7-tetrahydro-1H-indol-1-yl)acetic acid] | > 8.30
13 | Cc1c(Cc2ccccc2S(=O)(=O)N2CCOCC2)c2c(n1CC(=O)OC(C)C)CC(C)(C)CC2=O [Example I-60, isopropyl 2-(2,6,6-trimethyl-3-(2-(morpholinosulfonyl)benzyl)-4-oxo-4,5,6,7-tetrahydro-1H-indol-1-yl)acetate] | < 6.30
14 | CCOC(=O)Cn1c(C)c(Sc2ccc(Br)cc2S(=O)(=O)N2CCCC2)c2c1CC(C)(C)CC2=O [Example I-53, ethyl 2-(3-(4-bromo-2-(pyrrolidin-1-ylsulfonyl)phenylthio)-2,6,6-trimethyl-4-oxo-4,5,6,7-tetrahydro-1H-indol-1-yl)acetate] | < 6.30
15 | Cc1c(Cc2ccccc2S(=O)(=O)N2CCOCC2)c2c(n1[C@H](C)C(=O)O)CCC(C)(C)C2 [Example I-35, (R)-2-(2,5,5-trimethyl-3-(2-(morpholinosulfonyl)benzyl)-4,5,6,7-tetrahydro-1H-indol-1-yl)propanoic acid] | > 8.30
16 | Cc1c(Cc2ccccc2S(=O)(=O)N(C)C)c2c(n1CC(=O)O)CC(C)(C)CC2=O [Example I-52, 2-(3-(2-(N,N-dimethylsulfamoyl)benzyl)-2,6,6-trimethyl-4-oxo-4,5,6,7-tetrahydro-1H-indol-1-yl)acetic acid] | > 8.30
17 | CCOC(=O)Cn1c(C)c(Cc2ccccc2S(=O)(=O)N2CCOCC2)c2c1CC(C)(C)CC2=O [Example I-56, ethyl 2-(2,6,6-trimethyl-3-(2-(morpholinosulfonyl)benzyl)-4-oxo-4,5,6,7-tetrahydro-1H-indol-1-yl)acetate] | 6.30 to 7.00
18 | Cc1c(Cc2ccccc2S(=O)(=O)N2CCCC2)c2c(n1CC(=O)O)CC(C)(C)C(C)(C)C2=O [Example I-95, 2-(2,5,5,6,6-pentamethyl-4-oxo-3-(2-(pyrrolidin-1-ylsulfonyl)benzyl)-4,5,6,7-tetrahydro-1H-indol-1-yl)acetic acid] | > 8.30
19 | Cc1c(Cc2ccccc2S(=O)(=O)N2CCCC2)c2c(n1CC(=O)O)CCCC2=O [Example I-77, 2-(2-methyl-4-oxo-3-(2-(pyrrolidin-1-ylsulfonyl)benzyl)-4,5,6,7-tetrahydro-1H-indol-1-yl)acetic acid] | > 8.30
20 | CCOC(=O)Cn1c(C)c(Sc2ccc(C)cc2S(=O)(=O)N2CCCC2)c2c1CC(C)(C)CC2=O [Example I-54, ethyl 2-(2,6,6-trimethyl-3-(4-methyl-2-(pyrrolidin-1-ylsulfonyl)phenylthio)-4-oxo-4,5,6,7-tetrahydro-1H-indol-1-yl)acetate] | 6.30 to 7.00
21 | Cc1c(Cc2ccccc2S(=O)(=O)c2cccs2)c2c(n1CC(=O)O)CC(C)(C)CC2=O [Example I-81, 2-(2,6,6-trimethyl-4-oxo-3-(2-(thiophen-2-ylsulfonyl)benzyl)-4,5,6,7-tetrahydro-1H-indol-1-yl)acetic acid] | > 8.30
22 | Cc1c(Cc2cccc(S(=O)(=O)N3CCOCC3)c2)c2c(n1CC(=O)O)CCC(C)(C)C2 [Example I-27, 2-(2,5,5-trimethyl-3-(3-(morpholinosulfonyl)benzyl)-4,5,6,7-tetrahydro-1H-indol-1-yl)acetic acid] | 7.00 to 8.30
23 | Cc1c(Cc2ccccc2S(=O)(=O)N2CCOCC2)c2c(n1CC(=O)O)CC(C)(C)CC2 [Example I-26, 2-(2,6,6-trimethyl-3-(2-(morpholinosulfonyl)benzyl)-4,5,6,7-tetrahydro-1H-indol-1-yl)acetic acid] | > 8.30
24 | Cc1c(Cc2ccccc2S(=O)(=O)N2CCCC2)c2c(n1CC(=O)O)CC(C)(C)C(F)(F)C2=O [Example I-96, 2-(5,5-difluoro-2,6,6-trimethyl-4-oxo-3-(2-(pyrrolidin-1-ylsulfonyl)benzyl)-4,5,6,7-tetrahydro-1H-indol-1-yl)acetic acid] | > 8.30
25 | Cc1c(C(O)c2ccccc2S(=O)(=O)N2CCCC2)c2c(n1CC(=O)O)CC(C)(C)CC2=O (centres unmarked) [Example I-50, 2-(3-(hydroxy(2-(pyrrolidin-1-ylsulfonyl)phenyl)methyl)-2,6,6-trimethyl-4-oxo-4,5,6,7-tetrahydro-1H-indol-1-yl)acetic acid] | < 6.30
26 | Cc1c(Cc2ccc(S(=O)(=O)NC3CC3)cc2)c2c(n1CC(=O)O)CCC(C)(C)C2 [Example I-15, 2-(3-(4-(N-Cyclopropylsulfamoyl)benzyl)-2,5,5-trimethyl-4,5,6,7-tetrahydro-1H-indol-1-yl)acetic acid] | > 8.30
